Assay results as given in the supplement of paper PMC10307832.

Columns and labels:
Assay in all cases: relative viability (nuclei count vs DMSO), 5 days (fraction); higher = more cells survive
[1] = compound: CC1(C)CCC(CN2CCN(c3ccc(C(=O)NS(=O)(=O)c4ccc(NCC5CCOCC5)c([N+](=O)[O-])c4)c(Oc4cnc5[nH]ccc5c4)c3)CC2)=C(c2ccc(Cl)cc2)C1 [Venetoclax] + COc1cccc2cc(-c3nc([C@H]4CC[C@H](C(=O)O)CC4)n4ncnc(N)c34)[nH]c12 [OSI-027] (partner 0.5 µM)
Procedure, shortened: (§1)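 Lung cancer cell lines in 1536-well plates got either a single drug or a fixed anchor-drug dose together with five library-drug doses (not always all listed) in √10 steps, by pin tool, on the day after seeding. Nuclei were counted after 5 days, and relative viability is the treated-to-vehicle ratio of nuclei counts. Values are medians of duplicate plates.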

[2] = compound: CC1(C)CCC(CN2CCN(c3ccc(C(=O)NS(=O)(=O)c4ccc(NCC5CCOCC5)c([N+](=O)[O-])c4)c(Oc4cnc5[nH]ccc5c4)c3)CC2)=C(c2ccc(Cl)cc2)C1 [Venetoclax] + CS(=O)(=O)N1CCN(Cc2cc3nc(-c4cccc5[nH]ncc45)nc(N4CCOCC4)c3s2)CC1 [Pictilisib] (partner 1 µM)
Procedure, shortened: as §1

[3] = compound: CC1(C)CCC(CN2CCN(c3ccc(C(=O)NS(=O)(=O)c4ccc(NCC5CCOCC5)c([N+](=O)[O-])c4)c(Oc4cnc5[nH]ccc5c4)c3)CC2)=C(c2ccc(Cl)cc2)C1 [Venetoclax] + C[C@]1(O)C[C@@H](c2nc(-c3ccc4ccc(-c5ccccc5)nc4c3)c3c(N)nccn32)C1 [Linsitinib] (partner 1 µM)
Procedure, shortened: as §1

[4] = compound: CC1(C)CCC(CN2CCN(c3ccc(C(=O)NS(=O)(=O)c4ccc(NCC5CCOCC5)c([N+](=O)[O-])c4)c(Oc4cnc5[nH]ccc5c4)c3)CC2)=C(c2ccc(Cl)cc2)C1 [Venetoclax] + Cc1cc(Nc2cc(N3CCN(C)CC3)nc(Sc3ccc(NC(=O)C4CC4)cc3)n2)n[nH]1 [Tozasertib] (partner 0.1 µM)
Procedure, shortened: as §1

Row | Cell Line | relative viability ([1]; first compound 0.01 µM) | relative viability ([1]; first compound 0.03162 µM) | relative viability ([1]; first compound 0.1 µM) | relative viability ([1]; first compound 0.3162 µM) | relative viability ([1]; first compound 1 µM) | relative viability ([2]; first compound 0.01 µM) | relative viability ([2]; first compound 0.03162 µM) | relative viability ([2]; first compound 0.1 µM) | relative viability ([2]; first compound 0.3162 µM) | relative viability ([2]; first compound 1 µM) | relative viability ([3]; first compound 0.01 µM) | relative viability ([3]; first compound 0.03162 µM) | relative viability ([3]; first compound 0.1 µM) | relative viability ([3]; first compound 0.3162 µM) | relative viability ([3]; first compound 1 µM) | relative viability ([4]; first compound 0.01 µM) | relative viability ([4]; first compound 0.03162 µM) | relative viability ([4]; first compound 0.1 µM) | relative viability ([4]; first compound 0.3162 µM) | relative viability ([4]; first compound 1 µM)
1 | HCC-44 | 0.609 | 0.652 | 0.539 | 0.589 | 0.477 | 0.63 | 0.595 | 0.596 | 0.578 | 0.608 | 0.613 | 0.728 | 0.67 | 0.664 | 0.609 | 0.747 | 0.978 | 0.894 | 0.791 | 0.715
2 | HCC-78 | 0.4 | 0.387 | 0.35 | 0.347 | 0.371 | 0.179 | 0.244 | 0.187 | 0.206 | 0.238 | 0.494 | 0.563 | 0.433 | 0.571 | 0.596 | 0.349 | 0.454 | 1.29 | 0.404 | 0.497
3 | HCC-366 | 0.873 | 0.958 | 0.628 | 0.95 | 0.573 | 0.193 | 0.154 | 0.0731 | 0.184 | 0.138 | 0.659 | 0.657 | 0.605 | 0.779 | 0.549 | 0.094 | 0.119 | 0.123 | 0.0769 | 0.0514
4 | HCC-827 | 0.799 | 0.839 | 0.776 | 0.733 | 0.755 | 1.01 | 1.31 | 0.912 | 0.929 | 1.02 | 0.997 | 0.973 | 1 | 0.978 | 0.87 | 0.417 | 0.413 | 0.4 | 0.416 | 0.385
5 | HOP-62 | 0.879 | 0.861 | 0.842 | 0.838 | 0.78 | 0.725 | 1.04 | 0.493 | 0.904 | 0.634 | 1.04 | 0.968 | 1.15 | 0.938 | 0.948 | 0.414 | 0.321 | 0.409 | 0.31 | 0.313
6 | IA-LM |  |  |  |  |  | 0.354 | 0.322 | 0.275 | 0.317 | 0.337 | 0.51 | 0.605 | 0.71 | 0.418 | 0.403 |  |  |  |  | 
7 | LC-2-ad | 1.01 | 0.934 | 0.72 | 0.905 | 0.845 | 0.45 | 0.401 | 0.387 | 0.516 | 0.555 | 0.807 | 0.904 | 0.785 | 0.848 | 0.798 | 0.418 | 0.398 | 0.425 | 0.535 | 0.433
8 | LCLC-97TM1 | 0.519 | 0.704 | 0.556 | 0.478 | 0.465 |  | 0.264 | 0.173 | 0.273 | 0.21 |  | 0.197 | 0.158 | 0.182 | 0.198 | 0.302 | 0.27 | 0.207 | 0.185 | 0.202
9 | LCLC-103H | 0.5 | 0.492 | 0.502 | 0.404 | 0.404 | 0.686 | 0.566 | 0.635 | 0.676 | 0.619 | 1.1 | 1.24 | 1.16 | 1.13 | 0.989 | 0.575 | 0.396 | 0.36 | 0.51 | 0.454
10 | LK-2 | 0.317 | 0.204 | 0.22 | 0.22 | 0.161 | 0.799 | 0.636 | 0.512 | 0.54 | 0.613 | 0.727 | 0.621 | 0.516 | 0.548 | 0.551 | 0.154 | 0.18 | 0.19 | 0.18 | 0.192
11 | NCI-H522 | 0.631 | 0.759 | 0.684 | 0.824 | 0.6 |  |  |  |  |  |  |  |  |  |  | 0.605 | 0.481 | 0.599 | 0.555 | 0.437
12 | NCI-H1299 |  |  |  |  |  | 0.869 | 0.874 | 0.637 | 0.769 | 0.67 | 0.987 | 1.02 | 1.06 | 0.926 | 0.936 |  |  |  |  | 
13 | NCI-H1563 | 0.836 | 0.776 | 0.747 | 0.773 | 0.707 | 0.881 | 0.653 | 0.648 | 0.642 | 0.698 | 1.16 | 1.29 | 1.28 | 1.4 | 1.24 |  |  |  |  | 
14 | NCI-H1623 | 0.419 | 0.424 | 0.414 | 0.444 | 0.424 |  |  |  |  |  |  |  |  |  |  | 0.444 | 0.506 | 0.411 | 0.411 | 0.403
15 | NCI-H1648 | 0.287 | 0.24 | 0.313 | 0.265 | 0.256 |  |  |  |  |  |  |  |  |  |  | 0.235 | 0.574 | 0.54 | 0.471 | 0.415
16 | NCI-H1650 | 0.531 | 0.856 | 0.606 | 0.783 | 0.529 | 0.531 | 0.713 |  | 0.723 | 0.622 |  |  |  |  |  | 0.456 | 0.409 | 0.427 | 0.406 | 0.299
17 | NCI-H1703 |  |  |  |  |  | 0.22 | 0.266 | 0.206 | 0.229 | 0.236 | 0.549 | 0.652 | 0.81 | 0.756 | 0.755 |  |  |  |  | 
18 | NCI-H1792 | 0.695 | 0.751 | 0.603 | 0.638 | 0.721 | 0.228 | 0.306 | 0.161 | 0.262 | 0.278 | 0.469 | 0.46 | 0.467 | 0.408 | 0.591 |  |  |  |  | 
19 | NCI-H2170 | 0.597 | 0.802 | 0.552 | 0.713 | 0.633 | 0.266 | 0.3 | 0.296 | 0.306 | 0.302 |  |  |  |  |  | 0.723 | 0.68 | 0.592 | 0.646 | 0.632
20 | NCI-H2342 | 0.767 | 0.708 | 0.554 | 0.715 | 0.665 |  |  |  |  |  |  |  |  |  |  | 0.59 | 0.617 | 0.375 | 0.568 | 0.656
21 | SW 900 | 0.641 | 0.548 | 0.484 | 0.525 | 0.604 |  |  |  |  |  |  |  |  |  |  | 0.401 | 0.55 | 0.476 | 0.65 | 0.386
